Laboratory results: patent US10370371B2, “Substituted pyrimidine Bmi-1 inhibitors” (PTC Therapeutics, Inc., priority 2013, dated 2019)

The compounds below were run on Bmi-1 protein (assay: Sandwich ELISA Assay (Bmi-1 protein level in HT-1080 cells)).
Type: cell-based
Outline: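 HT-1080 cells were treated with compounds (0.5% DMSO final) for 40-48 h at 37 °C. Lysates were assayed by sandwich ELISA: mouse anti-Bmi-1 capture, rabbit anti-Bmi-1 and HRP anti-rabbit detection, TMB read at OD450 (OD570 reference). Levels were quantified against a recombinant GST-Bmi-1 standard curve (125-8000 pg/mL).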
An EC50 of 100 to 3000 nM was found for Cc1nc2c(cc(F)c[n+]2[O-])n1-c1cc(N)nc(Nc2ccc(C(F)(F)F)cc2)n1 [Cpd 108, 6-(6-fluoro-2-methyl-4-oxido-1H-imidazo[4,5-b]pyridin-1-yl)-N^2-[4-(trifluoromethyl)phenyl]pyrimidine-2,4-diamine] in this work.
An EC50 of 10 to 100 nM was found for Cc1nn2ccc(F)cc2c1-c1cc(N)nc(Nc2ccc(C(F)(F)F)cc2)n1 [Cpd 109, 6-(5-fluoro-2-methylpyrazolo[1,5-a]pyridin-3-yl)-N^2-[4-(trifluoromethyl)phenyl]pyrimidine-2,4-diamine] in this work.
An EC50 of 100 to 3000 nM was found for Cc1nc2ccccc2n1-c1cc(N)[n+]([O-])c(Nc2ccc(C(F)(F)F)cc2)n1 [Cpd 110, 6-(2-methyl-1H-benzimidazol-1-yl)-N^2-[4-(trifluoromethyl)phenyl]pyrimidine-2,4-diamine 3-oxide] in this work.
An EC50 of 100 to 3000 nM was found for Cc1nc2ccc(F)cc2n1-c1cc(N)[n+]([O-])c(Nc2ccc(C(F)(F)F)cc2)n1 [Cpd 112, 6-(6-fluoro-2-methyl-1H-benzimidazol-1-yl)-N^2-[4-(trifluoromethyl)phenyl]pyrimidine-2,4-diamine 3-oxide] in this work.
An EC50 of 10 to 100 nM was found for COc1ccn2nc(C)c(-c3cc(Cl)nc(Nc4ccc(C(F)(F)F)cc4)n3)c2c1 [Cpd 113, 4-chloro-6-(5-methoxy-2-methylpyrazolo[1,5-a]pyridin-3-yl)-N-[4-(trifluoromethyl)phenyl]pyrimidin-2-amine] in this work.
An EC50 of 10 to 100 nM was found for COc1ccn2nc(C)c(-c3cc(N)nc(Nc4ccc(C(F)(F)F)cc4)n3)c2c1 [Cpd 114, 6-(5-methoxy-2-methylpyrazolo[1,5-a]pyridin-3-yl)-N^2-[4-(trifluoromethyl)phenyl]pyrimidine-2,4-diamine] in this work.
An EC50 of 100 to 3000 nM was found for Cc1nc2cc(F)c(F)cc2n1-c1cc(N)[n+]([O-])c(Nc2ccc(OC(F)F)cc2)n1 [Cpd 115, N^2-[4-(difluoromethoxy)phenyl]-6-(5,6-difluoro-2-methyl-1H-benzimidazol-1-yl)pyrimidine-2,4-diamine 3-oxide] in this work.
An EC50 of 100 to 3000 nM was found for Nc1cc(-n2c(C3CC3)nc3ccccc32)nc(Nc2ccc(C(F)(F)F)cc2)[n+]1[O-] [Cpd 116, 6-(2-cyclopropyl-1H-benzimidazol-1-yl)-N^2-[4-(trifluoromethyl)phenyl]pyrimidine-2,4-diamine 3-oxide] in this work.
An EC50 of 100 to 3000 nM was found for CCc1nc2ccccc2n1-c1cc(N)[n+]([O-])c(Nc2ccc(C(F)(F)F)cc2)n1 [Cpd 118, 6-(2-ethyl-1H-benzimidazol-1-yl)-N^2-[4-(trifluoromethyl)phenyl]pyrimidine-2,4-diamine 3-oxide] in this work.
An EC50 of 100 to 3000 nM was found for CCc1nc2ccc(F)cc2n1-c1cc(N)[n+]([O-])c(Nc2ccc(C(F)(F)F)cc2)n1 [Cpd 119, 6-(2-ethyl-6-fluoro-1H-benzimidazol-1-yl)-N^2-[4-(trifluoromethyl)phenyl]pyrimidine-2,4-diamine 3-oxide] in this work.
An EC50 of 10 to 100 nM was found for Cc1nn2ccc(N)cc2c1-c1cc(N)nc(Nc2ccc(C(F)(F)F)cc2)n1 [Cpd 120, 6-(5-amino-2-methylpyrazolo[1,5-a]pyridin-3-yl)-N^2-[4-(trifluoromethyl)phenyl]pyrimidine-2,4-diamine] in this work.
An EC50 of 10 to 100 nM was found for Cc1nn2ccc(Cl)cc2c1-c1cc(N)nc(Nc2ccc(OC(F)F)cc2)n1 [Cpd 121, 6-(5-chloro-2-methylpyrazolo[1,5-a]pyridin-3-yl)-N^2-[4-(difluoromethoxy)phenyl]pyrimidine-2,4-diamine] in this work.
An EC50 of 10 to 100 nM was found for Cc1nn2ccc(Cl)cc2c1-c1cc(N)nc(Nc2ccc(C(F)(F)F)cc2)n1 [Cpd 122, 6-(5-chloro-2-methylpyrazolo[1,5-a]pyridin-3-yl)-N^2-[4-(trifluoromethyl)phenyl]pyrimidine-2,4-diamine] in this work.
An EC50 of 10 to 100 nM was found for CSc1nc2ccccc2n1-c1cc(N)nc(Nc2ccc(C(F)(F)F)cc2)n1 [Cpd 123, 6-[2-(methylsulfanyl)-1H-benzimidazol-1-yl]-N^2-[4-(trifluoromethyl)phenyl]pyrimidine-2,4-diamine] in this work.
An EC50 of 10 to 100 nM was found for CCc1nn2ccc(Cl)cc2c1-c1cc(N)nc(Nc2ccc(C(F)(F)F)cc2)n1 [Cpd 124, 6-(5-chloro-2-ethylpyrazolo[1,5-a]pyridin-3-yl)-N^2-[4-(trifluoromethyl)phenyl]pyrimidine-2,4-diamine] in this work.
An EC50 of 10 to 100 nM was found for CCc1nn2ccc(Cl)cc2c1-c1cc(N)nc(Nc2ccc(OC(F)F)cc2)n1 [Cpd 125, 6-(5-chloro-2-ethylpyrazolo[1,5-a]pyridin-3-yl)-N^2-[4-(difluoromethoxy)phenyl]pyrimidine-2,4-diamine] in this work.
An EC50 of 100 to 3000 nM was found for Cc1cccc(Nc2nc(N)cc(-n3c(C)nc4ccccc43)n2)c1 [Cpd 127, 6-(2-methyl-1H-benzimidazol-1-yl)-N^2-(3-methylphenyl)pyrimidine-2,4-diamine] in this work.
An EC50 of 1 to 10 nM was found for Cc1ccc(Nc2nc(N)cc(-n3c(C)nc4ccccc43)n2)cc1 [Cpd 128, 6-(2-methyl-1H-benzimidazol-1-yl)-N^2-(4-methylphenyl)pyrimidine-2,4-diamine] in this work.
An EC50 of 10 to 100 nM was found for Cc1nc2ccccc2n1-c1cc(N)nc(Nc2ccc(Br)cc2)n1 [Cpd 131, N^2-(4-bromophenyl)-6-(2-methyl-1H-benzimidazol-1-yl)pyrimidine-2,4-diamine] in this work.
An EC50 of 100 to 3000 nM was found for Cc1nc2ccccc2n1-c1cc(N)nc(Nc2ccc([N+](=O)[O-])cc2)n1 [Cpd 132, 6-(2-methyl-1H-benzimidazol-1-yl)-N^2-(4-nitrophenyl)pyrimidine-2,4-diamine] in this work.
An EC50 of 1 to 10 nM was found for COc1ccc(Nc2nc(N)cc(-n3c(C)nc4ccc(F)cc43)n2)cc1 [Cpd 133, 6-(6-fluoro-2-methyl-1H-benzimidazol-1-yl)-N^2-(4-methoxyphenyl)pyrimidine-2,4-diamine] in this work.
An EC50 of 1 to 10 nM was found for Cc1nc2ccccc2n1-c1cc(N)nc(Nc2ccc(N(C)C)cc2)n1 [Cpd 144, N^2-[4-(dimethylamino)phenyl]-6-(2-methyl-1H-benzimidazol-1-yl)pyrimidine-2,4-diamine] in this work.
An EC50 of 100 to 3000 nM was found for Cc1nc2ccccc2n1-c1cc(N)nc(Nc2ccc(C#N)cc2)n1 [Cpd 145, 4-{[4-amino-6-(2-methyl-1H-benzimidazol-1-yl)pyrimidin-2-yl]amino}benzonitrile] in this work.
An EC50 of 100 to 3000 nM was found for Cc1nc2ccccc2n1-c1cc(N)nc(Nc2ccc(OC(F)(F)F)cc2)n1 [Cpd 146, 6-(2-methyl-1H-benzimidazol-1-yl)-N^2-[4-(trifluoromethoxy)phenyl]pyrimidine-2,4-diamine] in this work.
An EC50 of 100 to 3000 nM was found for Cc1nc2ccccc2n1-c1cc(N)nc(Nc2ccc3c(c2)OC(F)(F)O3)n1 [Cpd 147, N^2-(2,2-difluoro-1,3-benzodioxol-5-yl)-6-(2-methyl-1H-benzimidazol-1-yl)pyrimidine-2,4-diamine] in this work.
An EC50 of 1 to 10 nM was found for COc1ccc(Nc2nc(N)cc(-n3c(C)nc4ccccc43)n2)cc1Cl [Cpd 149, N^2-(3-chloro-4-methoxyphenyl)-6-(2-methyl-1H-benzimidazol-1-yl)pyrimidine-2,4-diamine] in this work.
An EC50 of 1 to 10 nM was found for CCc1nc2ccccc2n1-c1cc(N)nc(Nc2ccc(C)cc2)n1 [Cpd 153, 6-(2-ethyl-1H-benzimidazol-1-yl)-N^2-(4-methylphenyl)pyrimidine-2,4-diamine] in this work.
An EC50 of 100 to 3000 nM was found for CCc1nc2ccc(F)cc2n1-c1cc(N)nc(Nc2cccc(Cl)c2)n1 [Cpd 164, N^2-(3-chlorophenyl)-6-(2-ethyl-6-fluoro-1H-benzimidazol-1-yl)pyrimidine-2,4-diamine] in this work.
An EC50 of 1 to 10 nM was found for COc1ccc(Nc2nc(N)cc(-c3c(C)nc4ccc(F)cn34)n2)cc1 [Cpd 170, 6-(6-fluoro-2-methylimidazo[1,2-a]pyridin-3-yl)-N^2-(4-methoxyphenyl)pyrimidine-2,4-diamine] in this work.
An EC50 of 1 to 10 nM was found for Cc1ccc(Nc2nc(N)cc(-c3c(C)nc4ccc(F)cn34)n2)cc1 [Cpd 171, 6-(6-fluoro-2-methylimidazo[1,2-a]pyridin-3-yl)-N^2-(4-methylphenyl)pyrimidine-2,4-diamine] in this work.
An EC50 of 100 to 3000 nM was found for Cc1cccc(Nc2nc(N)cc(-c3c(C)nc4ccc(F)cn34)n2)c1 [Cpd 173, 6-(6-fluoro-2-methylimidazo[1,2-a]pyridin-3-yl)-N^2-(3-methylphenyl)pyrimidine-2,4-diamine] in this work.
An EC50 of 10 to 100 nM was found for Cc1nc2ccc(F)cc2n1-c1cc(N)nc(Nc2ccc(Cl)c(F)c2)n1 [Cpd 174, N^2-(4-chloro-3-fluorophenyl)-6-(6-fluoro-2-methyl-1H-benzimidazol-1-yl)pyrimidine-2,4-diamine] in this work.
An EC50 of 10 to 100 nM was found for COc1ccc(Nc2nc(N)c(F)c(-n3c(C)nc4ccccc43)n2)cc1 [Cpd 176, 5-fluoro-N^2-(4-methoxyphenyl)-6-(2-methyl-1H-benzimidazol-1-yl)pyrimidine-2,4-diamine] in this work.
An EC50 of 10 to 100 nM was found for Cc1nc2ccccc2n1-c1cc(N)nc(Nc2ccc(Cl)cc2)n1 [Cpd 177, N^2-(4-chlorophenyl)-6-(2-methyl-1H-benzimidazol-1-yl)pyrimidine-2,4-diamine] in this work.
An EC50 of 1 to 10 nM was found for Cc1ccc(Nc2nc(N)c(F)c(-n3c(C)nc4ccccc43)n2)cc1 [Cpd 178, 5-fluoro-6-(2-methyl-1H-benzimidazol-1-yl)-N^2-(4-methylphenyl)pyrimidine-2,4-diamine] in this work.
An EC50 of 10 to 100 nM was found for Cc1nc2ccccc2n1-c1cc(N)nc(Nc2ccc(Cl)c(F)c2)n1 [Cpd 179, N^2-(4-chloro-3-fluorophenyl)-6-(2-methyl-1H-benzimidazol-1-yl)pyrimidine-2,4-diamine] in this work.
An EC50 of 1 to 10 nM was found for COc1ccc(Nc2nc(N)cc(-n3c(C)nc4cc(F)c(F)cc43)n2)cc1 [Cpd 180, 6-(5,6-difluoro-2-methyl-1H-benzimidazol-1-yl)-N^2-(4-methoxyphenyl)pyrimidine-2,4-diamine] in this work.
An EC50 of 1 to 10 nM was found for Cc1ccc(Nc2nc(N)cc(-n3c(C)nc4cc(F)c(F)cc43)n2)cc1 [Cpd 181, 6-(5,6-difluoro-2-methyl-1H-benzimidazol-1-yl)-N^2-(4-methylphenyl)pyrimidine-2,4-diamine] in this work.
An EC50 of 10 to 100 nM was found for Cc1nc2cc(F)c(F)cc2n1-c1cc(N)nc(Nc2ccc(Cl)cc2)n1 [Cpd 182, N^2-(4-chlorophenyl)-6-(5,6-difluoro-2-methyl-1H-benzimidazol-1-yl)pyrimidine-2,4-diamine] in this work.
